In BindingDB's records for doi:10.1016/j.bmcl.2018.01.029 (Presidio Pharmaceuticals, 2018) one finds EC50 data, which are given here for 39 compounds.

Experiment [1] is described as follows: Inhibition of HCV genotype 1a NS5A polymerase infected in human HuH7 replicon cells by luciferase reporter gene assay.
Experiment [2] in a line: Inhibition of HCV genotype 1b NS5B polymerase infected in human HuH7 replicon cells by luciferase reporter gene assay. Background: Replicon systems follow genome replication, usually without infectious particles.
The nature of experiment [3]: Inhibition of HCV genotype 1a NS5A polymerase L31V/Y93H double mutant infected in human HuH7 replicon cells by luciferase reporter gene assay.
The nature of experiment [4]: Inhibition of HCV genotype 4a NS5B polymerase infected in human HuH7 replicon cells by luciferase reporter gene assay.
The nature of experiment [5]: Inhibition of HCV genotype 3a NS5B polymerase infected in human HuH7 replicon cells by luciferase reporter gene assay.
A short description of experiment [6]: Inhibition of HCV genotype 2a NS5B polymerase infected in human HuH7 replicon cells by luciferase reporter gene assay.

Broadly, the EC50 is the concentration giving half of the maximal effect. Higher therefore signals a need for much substance. Take `CNC(=O)c1c(-c2ccc(F)cc2)oc2cc3c(cc12)C(C)OCCN3S(C)(=O)=O` (centres undefined): the EC50 came out at 28 nM in experiment [1], 11 nM in experiment [2] and 21 nM in experiment [3].

For `CNC(=O)c1c(-c2ccc(F)cc2)oc2cc3c(cc12)[C@@H](C)OC1(CC1)CN3S(C)(=O)=O`, the figures for the EC50 in experiment [1] and in experiment [2] were > 2000 nM and 666 nM, respectively.

On to `CNC(=O)c1c(-c2ccc(F)cc2)oc2cc3c(cc12)CCCCN3C(C)=O`, for which the EC50 in experiment [1] and in experiment [3] was > 2000 nM throughout.

As to `CNC(=O)c1c(-c2ccc(F)cc2)oc2cc3c(cc12)[C@H](C)N(C)C(=O)CN3S(C)(=O)=O`, the EC50 in experiment [1] is 102 nM; in experiment [2], 13 nM.

In the case of `CNC(=O)c1c(-c2ccc(F)cc2)oc2cc3c(cc12)[C@H](C)O[C@H](CO)CN3S(C)(=O)=O`, the EC50 in experiment [4] turned out to be 9 nM; in experiment [1] it was 9 nM; in experiment [2] it was 3 nM; in experiment [5] it was 6 nM; in experiment [6] it was 12 nM.

For `CNC(=O)c1c(-c2ccc(F)cc2)oc2cc3c(cc12)[C@H](C)O[C@@H](CO)CN3S(C)(=O)=O`, the EC50 worked out at 64 nM in experiment [1] and 13 nM in experiment [2].

On to `CNC(=O)c1c2cc3c(cc2nn1-c1ccc(F)cc1)N(S(C)(=O)=O)CCCC3C` (centres undefined), for which the EC50 in experiment [1] is > 2000 nM.

On to `CNC(=O)c1c(-c2ccc(F)cc2)oc2cc3c(cc12)[C@@H](C)OCCN3S(C)(=O)=O`, for which the concentration giving a half-maximal response (EC50) in experiment [2] worked out at 686 nM; in experiment [3], 624 nM.

In the case of `CNC(=O)c1c(-c2ccc(F)cc2)oc2cc3c(cc12)C(=O)CCCN3S(C)(=O)=O`, the EC50 in experiment [2] is 78 nM; in experiment [3] it was 318 nM.

For `CNC(=O)c1c(-c2ccc(F)cc2)oc2cc3c(cc12)CCCCN3S(=O)(=O)C1CC1`, the EC50 in experiment [1] is 335 nM; in experiment [2], 73 nM; in experiment [3], 423 nM.

With `CNC(=O)c1c(-c2ccc(F)cc2)oc2cc3c(cc12)[C@@H](C)O[C@H](CO)CN3S(C)(=O)=O`, the EC50 amounted to 554 nM in experiment [1] and 69 nM in experiment [2].

As to `CNC(=O)c1c(-c2ccc(F)cc2)oc2cc3c(cc12)C(C)n1nnnc1CN3S(C)(=O)=O` (centres undefined), the concentration giving a half-maximal response (EC50) stood at 33 nM in experiment [1] and 8 nM in experiment [2].

As for `CNC(=O)c1c(-c2ccc(F)cc2)oc2cc3c(cc12)[C@H](C)CCCN3S(C)(=O)=O`, the EC50 was found to be 10 nM in experiment [1], 4 nM in experiment [2] and 9 nM in experiment [3].

Consider `CNC(=O)c1c(-c2ccc(F)cc2)oc2cc3c(cc12)C(C)OCC(CO)N3S(C)(=O)=O` (centres undefined), for which the concentration for a half-maximal effect (EC50) stood at 117 nM in experiment [4]; 40 nM in experiment [1]; 33 nM in experiment [2]; 53 nM in experiment [5]; 141 nM in experiment [6].

For the compound `CNC(=O)c1c(-c2ccc(F)cc2)oc2cc3c(cc12)[C@@H](C)O[C@H](CS(C)(=O)=O)CN3S(C)(=O)=O`, the EC50 was 100 nM in experiment [1] and 24 nM in experiment [2].

Take `CNC(=O)c1c(-c2ccc(F)cc2)oc2cc3c(cc12)[C@H](C)O[C@H](CS(C)(=O)=O)CN3S(C)(=O)=O`: the EC50 in experiment [4] turned out to be 7 nM; in experiment [1] it was 4 nM; in experiment [2], 3 nM; in experiment [5], 10 nM; in experiment [6] it was 18 nM.

Take `CNC(=O)c1c(-c2ccc(F)cc2)oc2cc3c(cc12)C(C)OC(CO)CN3S(C)(=O)=O` (centres undefined): the half-maximal effective concentration (EC50) in experiment [4] stood at 32 nM; in experiment [1] it was 52 nM; in experiment [2], 12 nM; in experiment [5], 20 nM; in experiment [6], 62 nM.

In the case of `CNC(=O)c1c(-c2ccc(F)cc2)oc2cc3c(cc12)[C@H](C)OC1(CC1)CN3S(C)(=O)=O`, the EC50 in experiment [1] worked out at 93 nM; in experiment [2] it was 13 nM.

`CNC(=O)c1c(-c2ccc(F)cc2)oc2cc3c(cc12)C(C)OC1(CC1)CN3S(C)(=O)=O` (centres undefined): the EC50 in experiment [1] came to 130 nM; in experiment [2], 19 nM.

In the case of `CNC(=O)c1c(-c2ccc(F)cc2)oc2cc3c(cc12)C(C)n1ccnc1CN3S(C)(=O)=O` (centres undefined), the concentration giving a half-maximal response (EC50) in experiment [1] came to 26 nM; in experiment [2], 74 nM.

In the case of `CNC(=O)c1c(-c2ccc(F)cc2)oc2cc3c(cc12)[C@@H](C)N(C)C(=O)CN3S(C)(=O)=O`, the EC50 was found to be 688 nM in experiment [1] and 59 nM in experiment [2].

Take `CNC(=O)c1c(-c2ccc(F)cc2)oc2cc3c(cc12)[C@@H](C)NC(=O)CN3S(C)(=O)=O`: the EC50 in experiment [1] was 1800 nM; in experiment [2], 586 nM.

For the compound `CNC(=O)c1c(-c2ccc(F)cc2)oc2cc3c(cc12)C(C)NC(=O)CN3S(C)(=O)=O` (centres undefined), the EC50 in experiment [1] turned out to be 19 nM; in experiment [2], 15 nM; in experiment [3], 14 nM.

As for `C=C1CCCN(S(C)(=O)=O)c2cc3oc(-c4ccc(F)cc4)c(C(=O)NC)c3cc21`, the EC50 in experiment [2] is 26 nM; in experiment [3], 106 nM.

In the case of `CNC(=O)c1c(-c2ccc(F)cc2)oc2cc3c(cc12)CCCCN3C(=O)OC`, the EC50 stood at 164 nM in experiment [2] and 722 nM in experiment [3].

`CN(O)C(=O)c1c(-c2ccc(F)cc2)oc2cc3c(cc12)CCCCN3S(C)(=O)=O`: the EC50 in experiment [2] is 298 nM; in experiment [3], > 2000 nM.

As for `CONC(=O)c1c(-c2ccc(F)cc2)oc2cc3c(cc12)CCCCN3S(C)(=O)=O`, the EC50 in experiment [2] is 31 nM; in experiment [3], 90 nM.

As for `CNC(=O)c1c(-c2ccc(F)cc2OC)oc2cc3c(cc12)C(C)CCCN3S(C)(=O)=O` (centres undefined), the half-maximal effective concentration (EC50) was 56 nM in experiment [2] and > 2000 nM in experiment [3].

Take `CCNC(=O)c1c(-c2ccc(F)cc2)oc2cc3c(cc12)CCCCN3S(C)(=O)=O`: the EC50 in experiment [1] was > 2000 nM.

For the compound `CNC(=O)c1c(-c2ccc(F)cc2)oc2cc3c(cc12)C(C)N(C)C(=O)CN3S(C)(=O)=O` (centres undefined), the EC50 in experiment [1] was determined as 180 nM; in experiment [2], 17 nM.

`CNC(=O)c1c(-c2ccc(F)cc2)oc2cc3c(cc12)[C@@H](C)O[C@@H](CS(C)(=O)=O)CN3S(C)(=O)=O`: the EC50 in experiment [1] was > 2000 nM; in experiment [2], 1210 nM.

In the case of `CNC(=O)c1c(-c2ccc(F)cc2)oc2cc3c(cc12)[C@H](C)O[C@@H](CS(C)(=O)=O)CN3S(C)(=O)=O`, the EC50 amounted to 57 nM in experiment [1] and 13 nM in experiment [2].

As to `CNC(=O)c1c(-c2ccc(F)cc2)oc2cc3c(cc12)C(C)N(C)CCN3S(C)(=O)=O` (centres undefined), the EC50 in experiment [2] stood at 14 nM; in experiment [3], 50 nM.

`CNC(=O)c1c(-c2ccc(F)cc2)oc2cc3c(cc12)C1CC1CCN3S(C)(=O)=O` (centres undefined): the EC50 is 35 nM in experiment [1], 9 nM in experiment [2] and 44 nM in experiment [3].

As to `CNC(=O)c1c(-c2ccc(F)cc2)oc2cc3c(cc12)C(C)=CCCN3S(C)(=O)=O`, the figures for the EC50 in experiment [2] and in experiment [3] were 16 nM and 70 nM, respectively.

For the compound `CS(=O)(=O)N1CCCCc2cc3c(-c4ncc[nH]4)c(-c4ccc(F)cc4)oc3cc21`, the results for the EC50 in experiment [1], in experiment [2] and in experiment [3] were 33 nM, 5 nM and 59 nM, respectively.

Take `CNC(=O)c1c(-c2ccc(F)cc2)nn2cc3c(cc12)C(C)CCCN3S(C)(=O)=O` (centres undefined): the EC50 in experiment [2] is 109 nM; in experiment [3], 523 nM.

In the case of `CNC(=O)c1c(-c2ccc(F)cc2)oc2cc3c(cc12)CCCCN3S(C)(=O)=O`, the EC50 in experiment [2] was determined as 17 nM; in experiment [3] it was 83 nM.

Consider `CNC(=O)c1c(-c2ccc(F)cc2)oc2cc3c(cc12)C(C)OC(C)CN3S(C)(=O)=O` (centres undefined), for which the EC50 in experiment [1] came out at 33 nM; in experiment [2] it was 8 nM.
